According to patent publication US8039464B2, “Muscarinic antagonists with PARP and SIR modulating activity as agents for inflammatory diseases” (ProteoSys AG, priority 2004, dated 2011):
Read-outs that look alike come from different tables or passages of the source. One block for each compound: values may come before it.

How the values were obtained:
PARP-1 [1] = molecular target: T1, PARP-1 (Homo sapiens, UniProt P09874); test: PARP inhibition assay (R&D Systems, Cat. No. TA4669); type: biochemical; details: for IC50: R&D assay, recombinant monomeric PARP-1, read-out: IC50 PARP-1 inhibition
Chain of PARP-1 (P11103 215-1013 limits assumed): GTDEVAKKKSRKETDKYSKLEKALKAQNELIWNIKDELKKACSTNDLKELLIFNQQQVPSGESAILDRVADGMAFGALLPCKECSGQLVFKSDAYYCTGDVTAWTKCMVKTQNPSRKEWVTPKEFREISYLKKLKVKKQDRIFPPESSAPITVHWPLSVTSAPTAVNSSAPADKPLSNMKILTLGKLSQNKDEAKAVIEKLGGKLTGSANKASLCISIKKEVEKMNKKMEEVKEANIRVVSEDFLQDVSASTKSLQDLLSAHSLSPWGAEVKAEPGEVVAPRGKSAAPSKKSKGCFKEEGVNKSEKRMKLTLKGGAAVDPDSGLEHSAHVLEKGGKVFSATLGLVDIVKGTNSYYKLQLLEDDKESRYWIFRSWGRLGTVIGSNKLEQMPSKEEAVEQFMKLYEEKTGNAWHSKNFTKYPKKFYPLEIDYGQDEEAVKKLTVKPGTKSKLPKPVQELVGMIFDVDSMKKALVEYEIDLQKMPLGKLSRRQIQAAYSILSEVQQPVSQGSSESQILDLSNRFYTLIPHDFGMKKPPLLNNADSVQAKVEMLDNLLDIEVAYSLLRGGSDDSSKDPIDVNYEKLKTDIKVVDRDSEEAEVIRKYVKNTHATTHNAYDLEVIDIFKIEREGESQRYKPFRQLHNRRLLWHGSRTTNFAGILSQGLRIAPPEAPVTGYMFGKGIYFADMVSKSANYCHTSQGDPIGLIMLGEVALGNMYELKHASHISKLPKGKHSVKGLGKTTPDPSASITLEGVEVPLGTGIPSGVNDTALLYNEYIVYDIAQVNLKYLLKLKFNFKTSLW
T1 construct: purchased R&D Systems TA4669
T1 sequence (P09874 whole entry): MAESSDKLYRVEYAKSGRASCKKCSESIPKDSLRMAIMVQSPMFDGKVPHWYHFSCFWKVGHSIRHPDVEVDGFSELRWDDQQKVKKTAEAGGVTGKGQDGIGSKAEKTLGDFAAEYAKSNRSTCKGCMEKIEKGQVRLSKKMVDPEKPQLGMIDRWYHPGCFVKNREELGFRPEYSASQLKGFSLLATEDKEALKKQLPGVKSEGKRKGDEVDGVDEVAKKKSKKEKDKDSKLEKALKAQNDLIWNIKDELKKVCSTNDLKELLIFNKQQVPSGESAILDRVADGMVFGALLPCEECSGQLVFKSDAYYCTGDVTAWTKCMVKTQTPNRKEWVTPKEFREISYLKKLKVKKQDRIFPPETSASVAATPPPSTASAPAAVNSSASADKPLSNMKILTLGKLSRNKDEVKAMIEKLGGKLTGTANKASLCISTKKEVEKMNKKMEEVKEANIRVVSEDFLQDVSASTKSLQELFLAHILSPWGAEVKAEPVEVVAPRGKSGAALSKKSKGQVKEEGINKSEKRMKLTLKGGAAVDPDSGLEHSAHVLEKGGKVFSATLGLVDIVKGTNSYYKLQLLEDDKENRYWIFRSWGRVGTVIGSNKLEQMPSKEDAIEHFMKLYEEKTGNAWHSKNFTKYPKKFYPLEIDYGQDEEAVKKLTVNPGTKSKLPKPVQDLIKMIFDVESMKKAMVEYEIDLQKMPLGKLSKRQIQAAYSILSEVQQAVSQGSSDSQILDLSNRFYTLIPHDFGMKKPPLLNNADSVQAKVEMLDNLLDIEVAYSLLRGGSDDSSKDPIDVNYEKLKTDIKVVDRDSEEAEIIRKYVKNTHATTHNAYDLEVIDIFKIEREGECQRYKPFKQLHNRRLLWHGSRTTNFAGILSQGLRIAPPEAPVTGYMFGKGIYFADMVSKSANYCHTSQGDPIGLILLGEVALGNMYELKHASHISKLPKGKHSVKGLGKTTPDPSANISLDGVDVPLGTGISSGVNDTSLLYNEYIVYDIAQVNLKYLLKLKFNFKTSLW
Text: A PARP inhibition assay from R&D Systems was used (Cat. No. TA4669) according to instructions of the supplier.
Under cellular conditions PARP-1 poly-ADP-ribosylates a host of nuclear proteins, including topoisomerase 1, 14-3-3 g and PARP-1 itself. Thus under cellular conditions, the self-modification of PARP-1 and dimerization are regulating its activity, moreover there is a tight interplay with PARG (poly-ADP-ribosyl-glycohydroxylase).

iNOS and Cox-2 = test: Cox-2 and iNOS expression after LPS challenge (Western blot); type: cell-based; details: LPS 100 ng/ml for 60 min
Experimental: (§1) Cell pellets were further investigated by Western blot staining with anti Cox-2 and anti iNOS antibodies of 1D polyacrylamide gels.
(§2) Cell survival was assessed by Trypan Blue staining.

[2] = test system: neurally differentiated V56 embryonic stem cells; test: LPS challenge, cell survival by Trypan Blue; type: cell-based; details: LPS 100 ng/ml for 60 min
Experimental: as §1, §2

[3] = test system: undifferentiated V56 embryonic stem cells; test: LPS challenge, cell survival by Trypan Blue; type: cell-based; details: LPS 100 ng/ml for 60 min
Experimental: as §1, §2

3T3 fibroblasts = test: LPS challenge, cell survival by Trypan Blue; type: cell-based; details: LPS 100 ng/ml for 60 min
Experimental: as §1, §2

A 549 cells = test: LPS challenge, cell survival by Trypan Blue; type: cell-based; details: LPS 100 ng/ml for 60 min
Experimental: as §1, §2

[4] = test system: D3 embryonic stem (ES) cells, neurons; test: Cell culture model for chemical ischemia and neuroprotection (calcium imaging); type: cell-based, mice
Experimental: For all experiments, D3 embryonic stem (ES) cells derived from 129/sv mice [Okabe et al., 1996] were cultivated for 12 days, with passages on days 2, 4, 7 and 9 as described previously [Sommer et al., 2004]. Insult conditions: Cells (24-well plates) were pre-incubated with or without 20 nM EPO in fresh medium for 24 hours at 37° C. Cells were rinsed once with low K^+ solution (140 mM NaCl, 4.7 mM KCl, 1.2 mM KH2PO4, 2.5 mM CaCl2, 1.2 mM MgSO4, 11 mM glucose, 15 mM Hepes-NaOH, pH 7.35). Cells (either with or without EPO pre-incubation) were incubated for up to 45 min (37° C.) with either low K^+ solution or with glucose-free low K^+ solution supplemented with 1 mM KCN (chemical ischemia solution [Kume et al., 2002]). Vitality control to asses numbers of surviving neurons was performed by a brief stimulation with a low dose of glutamate (10 μM). Afterwards, cells were washed three times with ice cold phosphate buffered saline (PBS), and then proteins were harvested. Suspended cells were pelleted at 500×G, and lysed into 9M urea 4% CHAPS. The cell lysate was desalted with a NAP-10 column (Amersham Biosciences), preequilibrated with the same buffer, and protein content was determined.
Functional tests by calcium imaging were performed essentially as described [Sommer et al., 2004]. Briefly, cells were loaded with 2 μM of […] in DMEM for 45 min at 37° C. in the dark. Measurements of relative changes in [Ca^2+] were made on an inverted epifluorescence microscope (Olympus IX70 S1F2) with a Polychrom IV Monochromator (Xe-lamp, USHIO). Excitation wavelengths (λ1, λ2) and the emission wavelength were 340, 380 and 510 nm, respectively. Acquisition and analysis of data after appropriate stimulation were performed by using MetaFluor software (Universal Imaging Corporation). Image resolution was 168×129 pixels (binning 8×8, pixel size 6.8×6.8 μm). Only cells identified as neurons by morphological criteria and occasional immunostaining (not shown) and those whose calcium levels returned to the resting state after the first stimulation were taken into account. Controls included nominal zero calcium (negative) and 5 μM ionomycin (positive), 10 μM glutamate (positive) and depolarisation (55 mM K+) (positive). Pharmacological agents were applied by a multi-valve, single-output focal drug application device (ALA Scientific) with the perfusion system DAD-12. […] During each stimulation event 20 image pairs were acquired.

[5] = Blood-brain-barrier passage: HPLC of plasma and CSF; details: rat, in vivo
Text: J. Gastroenterol. 66, 35ff.; Homon et al., 1987, Therapeutic Drug Monitoring 9, 236ff.).

SIR-2 [6] = molecular target: T2, SIR-2 (Mus musculus, UniProt Q923E4); test: SIR2 activity assay (CycLex SIR2 Assay kit); type: biochemical, murine; details: control; read-out: IC50 SIR-2 inhibition
T2 construct: Using a raw extract from murine embryonic stem cells; host or cells: murine embryonic stem cells (raw extract)
T2 sequence (Q923E4 2-737 limits assumed): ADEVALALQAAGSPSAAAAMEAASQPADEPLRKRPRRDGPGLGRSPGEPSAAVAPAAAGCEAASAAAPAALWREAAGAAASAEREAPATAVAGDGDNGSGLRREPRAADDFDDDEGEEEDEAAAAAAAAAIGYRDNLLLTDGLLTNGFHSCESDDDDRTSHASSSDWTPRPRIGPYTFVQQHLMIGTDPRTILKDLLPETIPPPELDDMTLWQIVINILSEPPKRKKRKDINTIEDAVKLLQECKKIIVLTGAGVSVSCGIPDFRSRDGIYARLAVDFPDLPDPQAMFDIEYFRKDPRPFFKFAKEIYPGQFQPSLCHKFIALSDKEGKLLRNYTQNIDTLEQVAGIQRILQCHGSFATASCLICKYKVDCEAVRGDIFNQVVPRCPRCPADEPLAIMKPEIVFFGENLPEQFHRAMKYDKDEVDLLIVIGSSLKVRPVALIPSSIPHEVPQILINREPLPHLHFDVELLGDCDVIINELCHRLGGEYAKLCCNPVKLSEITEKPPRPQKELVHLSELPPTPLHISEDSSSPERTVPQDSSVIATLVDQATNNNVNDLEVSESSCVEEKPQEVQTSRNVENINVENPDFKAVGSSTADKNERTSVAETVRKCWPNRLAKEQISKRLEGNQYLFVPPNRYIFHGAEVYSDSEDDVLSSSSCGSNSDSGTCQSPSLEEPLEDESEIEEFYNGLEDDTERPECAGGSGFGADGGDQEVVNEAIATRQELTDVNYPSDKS
Text: For measurements of SIR2 activities, the quantitative test kit for NAD-dependent histone deacetylase activity CycLex® SIR2 Assay kit (Cat# CY-1151) was used according to instructions of manufacturer (CycLex Co., Ltd. 1063-103 Ohara, Tera-Sawaoka Ina, Nagano 396-0002 Japan). All substances tested in the SIR assay were cross-checked for their influence on the lysyl-endopeptidase. For this control an already deacetylated substrate peptide was used in order to measure directly lysyl-endopeptidase activity.
For measurements of SIR2 activities, the quantitative test kit for NAD-dependent histone deacetylase activity CycLex® SIR2 Assay kit (Cat# CY-1151) was used according to instructions of manufacturer (CycLex Co., Ltd. 1063-103 Ohara, Tera-Sawaoka Ina, Nagano 396-0002 Japan).

PARP-1 [7] = test: Affinity enrichment with irreversible pirenzepine affinity tag; type: binding, mice
Text: (§3) A reactive —SCN group is introduced which binds to lysines in or near the binding site of the compound. A biotinylated linker serves for enrichment of bound protein. The synthesis is described in detail co-pending US-application 60/588,354 and 60/620,323 which are herein incorporated by reference. In FIG. 1 a synthesis scheme is depcited. The final product, which was used as affinity reagent is thiocyanato 11-[2-(4-biocytinyl-piperazin-1-yl)-acetyl]-5,11-dihydro-benzo[e]pyrido[3,2-b][1,4]diazepin-6-one, (11).
(§4) The affinity reagent 11 was used to bind the target covalently from fractionations of crude cell extracts of D3 ES cells and other cell lines, subsequently the affinity purified material was analysed by 1D PAGE, immunostaining, and mass spectrometry.
The subsequent fractionation, isolation and further analysis was performed according to published standard procedures (Sommer et al. 2004). A commercial anti-PARP antibody was used for staining Western blots. Mass spectrometry for independent identification of pirenzepine-tagged proteins was performed as described elsewhere recently (Vogt et al., 2003, Cahill et al., 2003).
A surplus of affinity tag was removed by NAP10 gel filtration. The reaction mixture was bound to streptavidin agarose. Elution occurred with elution buffer (2% SDS, 62.5 mM Tris-pH 6.8) for 10 min at room temperature and 10 min at 95° C. […]

SIR-2 [8] = molecular target: T3, SIR-2 (Mus musculus, UniProt Q923E4); test: as above; type: binding
T3 construct: endogenous in cells; host or cells: V56 / D3 embryonic stem cells, raw extract
T3 sequence (Q923E4 1-737): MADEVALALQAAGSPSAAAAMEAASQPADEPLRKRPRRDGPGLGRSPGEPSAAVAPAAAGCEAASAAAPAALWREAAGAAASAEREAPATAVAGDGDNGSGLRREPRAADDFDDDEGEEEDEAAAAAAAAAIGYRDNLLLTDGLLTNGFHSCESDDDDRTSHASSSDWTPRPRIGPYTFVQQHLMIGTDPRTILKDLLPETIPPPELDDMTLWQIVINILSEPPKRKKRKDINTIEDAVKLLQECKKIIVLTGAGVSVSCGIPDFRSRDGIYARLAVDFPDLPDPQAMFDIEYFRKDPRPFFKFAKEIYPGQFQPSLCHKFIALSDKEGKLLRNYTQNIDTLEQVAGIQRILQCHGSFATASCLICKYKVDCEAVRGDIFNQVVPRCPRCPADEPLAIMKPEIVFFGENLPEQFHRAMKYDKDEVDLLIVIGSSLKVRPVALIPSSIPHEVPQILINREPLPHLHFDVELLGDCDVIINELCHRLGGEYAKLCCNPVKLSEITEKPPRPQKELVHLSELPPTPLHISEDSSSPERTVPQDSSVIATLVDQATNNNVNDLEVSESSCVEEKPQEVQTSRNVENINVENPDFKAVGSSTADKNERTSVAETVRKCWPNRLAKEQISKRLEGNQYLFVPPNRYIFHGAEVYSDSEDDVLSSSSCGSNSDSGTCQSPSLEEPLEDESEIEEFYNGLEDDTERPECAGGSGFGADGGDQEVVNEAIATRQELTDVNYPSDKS
Text: as §3, §4
For SIR-2 staining the following antibodies were used: primary Ab: A-SiR 2 (Upstate, biomol 07-131; Lot:22073); 1:5000 in 5% BSA/1×TBST; secondary Ab: A-Rabbit PE(A-0545) 1:1000 in 5% BSA/1×TBST: […]

Compound: CN1CCN(CC(=O)N2c3ccccc3C(=O)Nc3cccnc32)CC1 [Pirenzepine, 5,11-dihydro-11[(4-methyl-1-piperazinyl)-acetyl]-6H-pyrido-[2,3-b]-[1,4]benzodiazepine-6-one, reference compound]
PARP-1 inhibition (in words) (PARP-1 [1]): rather weak PARP-1 inhibitor
IC50 (PARP-1 [1]): 200 µM
expression of inducible inflammatory markers iNOS and Cox-2 (iNOS and Cox-2): decreased expression
protection from LPS challenge [2]: protect
protection from LPS challenge [3]: protect
protection from LPS challenge (3T3 fibroblasts): protect
protection from LPS challenge (A 549 cells): protect
neuroprotective in vitro effect ([4]; 1 μM, chemical ischemia): prevents neuronal death
survival rate ([4]; after chemical ischemia, 1 μM Pirenzepine (FIG. 2b)): 72.1±4.4%
neuroprotective effect under raft-disrupting conditions ([4]; β-methyl-cyclodextrin or filipin): does not occur

passage into the brain [5]: virtually no passage
Compound: O=C1Nc2cccnc2N(C(=O)CN2CCNCC2)c2ccccc21 [dm-Pirenzepine, desmethyl-Pirenzepine]

Compound: NC(=O)c1cccnc1 [nicotine amide, reference compound]
IC50 (SIR-2 [6]): ~55 µM

IC50 (PARP-1 [1]): 7 µM
Compound: O=c1[nH]c2ccccc2c2ccccc12 [phenanthridone, reference compound]

Compound: thiocyanato 11-[2-(4-biocytinyl-piperazin-1-yl)-acetyl]-5,11-dihydro-benzo[e]pyrido[3,2-b][1,4]diazepin-6-one [pirenzepine-affinity tag]
interaction with PARP-1 (PARP-1 [7]): interacts
binding to SIR-2 (SIR-2 [8]): irreversibly binds
binding to SIR-2 (SIR-2 [8]; listed as affinity tag): interacts
